According to PMC10701869, “Anti-Xanthine Oxidase 5′-Hydroxyhericenes A–D from the Edible Mushroom Hericium erinaceus and Structure Revision of 3-[2,3-Dihydroxy-4-(hydroxymethyl)tetrahydrofuran-1-yl]-pyridine-4,5-diol” (ACS Omega, 2023):
Where a name gives a salt, the structure may show the parent alone.

Experiments:
MDA-MB-231 = assay: cells; design: species or system T47D, MRC-5; MTT cell viability, growth inhibition versus DMSO control, n = 4; conditions: Homo sapiens, MDA-MB-231, 48 h
Protocol: (§1) Cytotoxicity assays were evaluated against the following cell lines: T-47D ATCC, HTB-133 (hormone-dependent breast cancer), and MRC-5 ATCC, CCL171 (normal embryonic lung) from the American Type Culture Collection (ATCC, Manassas, VA) as well as MDA-MB-231 ((hormone-independent breast cancer) from M.D. Anderson Cancer Center, Houston, TX). […] The cutoff concentration is 50 μg mL^–1. Cell viability was determined using the MTT assay. […] The selectivity index between the T47D cancer cell line and the MRC-5 normal cell line is 13.5. […] In addition, this compound was previously reported to be noncytotoxic to MCF-7 cancer cell line.[36] This means that the growth inhibitory effect of hericerin depends on the types of breast cancer cell. T47D, MDA-MB-231, and MCF-7 are popular models in breast cancer studies. The T47D and MCF-7 are hormone-dependent breast cancer cells, but MDA-MB-231 is a hormone-independent breast cancer cell. […] Thus, hericerin (13) may be a good candidate to develop an anticancer agent against progesterone-sensitive breast cancer cells. Moreover, hericerin was reported to inhibit the growth of A549, SK-OV-3, SK-MEL-2, HCT-15, and HL-60 cancer cell lines.[10],[38] […] First, T47D and MDA-MB-231 breast cancer cells were exposed to compound 13 for 48 h, and the abundance of two apoptotic markers, namely, PARP and procaspase 3, was determined by Western blot.

xanthine oxidase = target: T1, xanthine oxidase (Bos taurus, UniProt P80457); assay: biochemical; design: xanthine oxidase inhibition (IXO assay), dose-response, n = 3
T1 construct: gene XDH
T1 sequence (P80457 2-1332): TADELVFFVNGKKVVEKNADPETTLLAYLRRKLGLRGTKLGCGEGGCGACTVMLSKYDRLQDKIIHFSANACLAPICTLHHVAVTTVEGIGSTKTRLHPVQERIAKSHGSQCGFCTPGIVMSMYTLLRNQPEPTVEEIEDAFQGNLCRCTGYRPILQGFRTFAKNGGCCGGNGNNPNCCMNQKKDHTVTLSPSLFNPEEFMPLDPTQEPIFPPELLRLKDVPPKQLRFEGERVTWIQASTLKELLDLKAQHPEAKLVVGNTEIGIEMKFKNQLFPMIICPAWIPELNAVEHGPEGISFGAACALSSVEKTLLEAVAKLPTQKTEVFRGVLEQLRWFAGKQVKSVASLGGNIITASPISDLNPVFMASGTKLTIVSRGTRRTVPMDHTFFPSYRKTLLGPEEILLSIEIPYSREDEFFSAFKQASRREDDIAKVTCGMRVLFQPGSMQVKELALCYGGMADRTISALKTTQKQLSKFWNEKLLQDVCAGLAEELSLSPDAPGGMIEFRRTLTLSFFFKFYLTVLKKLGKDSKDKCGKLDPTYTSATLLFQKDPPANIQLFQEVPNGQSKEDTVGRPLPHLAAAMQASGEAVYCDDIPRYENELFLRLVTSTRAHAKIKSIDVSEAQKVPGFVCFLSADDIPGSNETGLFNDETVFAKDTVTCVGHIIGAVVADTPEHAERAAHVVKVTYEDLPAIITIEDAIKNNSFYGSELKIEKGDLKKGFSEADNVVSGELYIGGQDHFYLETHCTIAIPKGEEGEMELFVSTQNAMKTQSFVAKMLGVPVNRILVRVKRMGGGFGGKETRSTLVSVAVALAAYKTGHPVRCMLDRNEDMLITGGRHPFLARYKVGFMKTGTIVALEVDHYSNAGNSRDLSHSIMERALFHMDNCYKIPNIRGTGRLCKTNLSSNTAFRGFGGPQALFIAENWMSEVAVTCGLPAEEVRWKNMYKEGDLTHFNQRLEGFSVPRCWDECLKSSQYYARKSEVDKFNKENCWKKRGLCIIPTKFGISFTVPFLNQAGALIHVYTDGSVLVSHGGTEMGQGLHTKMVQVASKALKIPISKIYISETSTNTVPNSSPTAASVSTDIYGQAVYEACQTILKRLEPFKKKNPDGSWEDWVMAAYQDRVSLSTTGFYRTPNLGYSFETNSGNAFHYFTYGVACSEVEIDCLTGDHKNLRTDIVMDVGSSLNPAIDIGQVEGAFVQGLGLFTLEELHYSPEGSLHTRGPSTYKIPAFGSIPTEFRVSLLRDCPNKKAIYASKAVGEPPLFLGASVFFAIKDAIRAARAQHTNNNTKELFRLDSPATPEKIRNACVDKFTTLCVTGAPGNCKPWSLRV
Protocol: The assays were evaluated against DPPH (diphenyl picrylhydracyl radical), XXO (reactive oxygen species generated by xanthine oxidase), and IXO (inhibition of xanthine oxidase). DMSO was used as a solvent and a negative control. […] The cutoff concentration is 100 μg mL^–1 for DPPH and 200 μg mL^–1 for XXO and IXO.

T47D = assay: cells; design: species or system MDA-MB-231, MRC-5; MTT cell viability, growth inhibition versus DMSO control, n = 4; conditions: Homo sapiens, 48 h
Protocol: Cytotoxicity assays were evaluated against the following cell lines: T-47D ATCC, HTB-133 (hormone-dependent breast cancer), and MRC-5 ATCC, CCL171 (normal embryonic lung) from the American Type Culture Collection (ATCC, Manassas, VA) as well as MDA-MB-231 ((hormone-independent breast cancer) from M.D. Anderson Cancer Center, Houston, TX). […] The cutoff concentration is 50 μg mL^–1. Cell viability was determined using the MTT assay. […] The selectivity index between the T47D cancer cell line and the MRC-5 normal cell line is 13.5. […] In addition, this compound was previously reported to be noncytotoxic to MCF-7 cancer cell line.[36] This means that the growth inhibitory effect of hericerin depends on the types of breast cancer cell. T47D, MDA-MB-231, and MCF-7 are popular models in breast cancer studies. The T47D and MCF-7 are hormone-dependent breast cancer cells, but MDA-MB-231 is a hormone-independent breast cancer cell. […] Thus, hericerin (13) may be a good candidate to develop an anticancer agent against progesterone-sensitive breast cancer cells. Moreover, hericerin was reported to inhibit the growth of A549, SK-OV-3, SK-MEL-2, HCT-15, and HL-60 cancer cell lines.[10],[38] To determine the possible mechanism, we performed an apoptosis assay. First, T47D and MDA-MB-231 breast cancer cells were exposed to compound 13 for 48 h, and the abundance of two apoptotic markers, namely, PARP and procaspase 3, was determined by Western blot.

in vitro = assay: in vitro; design: species or system T47D, MDA-MB-231; MTT cell viability, growth inhibition versus DMSO control, n = 4; conditions: human, mrc-5 cells; read-out: MRC-5 IC50
Protocol: as §1

Compound | IC50 (MDA-MB-231) [µM] | inhibition at 200 µg/mL (xanthine oxidase) [%] | IC50 (T47D) [µM] | CC50 at 48 h (in vitro) [µM] | inhibition at 50 µg/mL (MDA-MB-231) [%] | inhibition at 50 µg/mL (T47D) [%]
COc1cc2c(c(O)c1C/C=C(\C)CCC=C(C)C)C(=O)N(CCc1ccccc1)C2 [compound 13, hericerin] | 57.5 ± 5.4 | 43.3 ± 5 | 5.9 ± 1.6 | 79.6 ± 13.7 |  | 
Nc1ncnc2c1ncn2[C@@H]1O[C@H](CO)[C@@H](O)[C@H]1O [compound 6, adenosine] |  | 27 ± 7.9 |  |  | 2.5 ± 5 | 2.3 ± 2.9
COc1cccc2c1C(=O)c1c(O)c3c(c(O)c1C2=O)C[C@@](O)(C(=O)CO)C[C@@H]3O[C@H]1C[C@H](N)[C@H](O)[C@H](C)O1 [Doxorubicin·HCl, Doxorubicin hydrochloride] |  |  | 0.69 ± 0.03 | 2.75 ± 0.21 |  | 
